Earlier results on 1 compound are cited in patent US20210069187A1, “Stable pharmaceutical composition of Selexipag” (RK Pharma Solutions LLC, priority 2019, published 2021).

The structures appear in SMILES notation.

Assay in data set [1]: not given
This is another data set of the same source.

With `CC(C)N(CCCCOCC(=O)NS(C)(=O)=O)c1cnc(-c2ccccc2)c(-c2ccccc2)n1` [Selexipag, 2-{4-[N-(5,6-diphenylpyrazin-2-yl)-N-isopropylamino]butyloxy}-N-(methylsulfonyl)acetamide], the “stability in the solid state” value was “very stable”. For the same compound, where the note is “solid state”, the hygroscopicity result is “not hygroscopic” and the light sensitivity result was “not light sensitive”. Moreover, in data set [1], the solubility in water result is “practically insoluble”.
